Test systems include 786-0 renal; HCT-116 colon; HOP-92 NSCLC; NCI-H460 lung; OVCAR-3 ovarian; SK-OV-3 ovarian; SR leukemia; T-47D breast; TK-10 renal; U251 CNS.
What all share (experiment): NCI anticancer screen, dose series, 48 h

Where “and” joins values, the source holds several entries; their conditions need not be identical. Identical values can stand only once.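 Test compounds were applied to cells in 96-well plates for 48 hours at 5 doses. GI50 marks 50% less growth. Definition used: TGI = concentration required for complete inhibition of growth.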

For the compound `CCOC(=O)c1c(NC(=O)c2ccc(Cl)cc2)sc2c(CN(C)C)c(O)ccc12`, the GI50 in the assay on 786-0 renal is 5.54 µM; in the assay with HCT-116 colon, 6.96 µM; in the assay on HOP-92 NSCLC, 1.78 µM; in the assay with NCI-H460 lung, 4.71 µM; with OVCAR-3 ovarian it was 16.2 µM; with SK-OV-3 ovarian, 10.9 µM. For the same compound, the GI50 in the assay with SR leukemia is 2.19 µM; with T-47D breast, 4.88 µM; in the assay on TK-10 renal, 14.5 µM; in the assay with U251 CNS, 4.85 µM. In addition, the TGI with 786-0 renal was 20.7 µM; in the assay on HCT-116 colon, 40.8 µM; with HOP-92 NSCLC, 6.07 µM; with NCI-H460 lung it was > 100 µM; in the assay on OVCAR-3 ovarian it was > 100 µM; in the assay with SK-OV-3 ovarian, 33.3 µM. Besides, the TGI was 4.82 µM in the assay with SR leukemia, > 100 µM with T-47D breast, 34.5 µM in the assay on TK-10 renal and 23.5 µM with U251 CNS.

On to `COc1cc2cc(Oc3cccc(NC(=O)Nc4cc(C(F)(F)F)cc(C(F)(F)F)c4)c3)c(C)nc2cc1OC`, for which the GI50 with 786-0 renal was 1.61 µM; in the assay with HCT-116 colon, 0.589 µM; in the assay with HOP-92 NSCLC, 1.12 µM; in the assay on NCI-H460 lung it was 0.96 µM; with OVCAR-3 ovarian, 0.488 µM; in the assay on SK-OV-3 ovarian it was 1.71 µM. For the same compound, the GI50 was 1.62 µM in the assay on SR leukemia, 1.48 µM in the assay on T-47D breast, 2.32 µM in the assay with TK-10 renal and 1.08 µM in the assay on U251 CNS. Besides, the TGI in the assay on 786-0 renal was 3.09 µM; in the assay with HCT-116 colon it was 1.92 µM; in the assay on HOP-92 NSCLC, 3.9 µM; in the assay on NCI-H460 lung it was 2.72 µM; with OVCAR-3 ovarian, 1.7 µM; in the assay on SK-OV-3 ovarian, 3.47 µM. The TGI in the assay on SR leukemia is 5.97 µM; in the assay with T-47D breast, 5.67 µM; in the assay with TK-10 renal, 9.18 µM; in the assay on U251 CNS, 2.47 µM.

In the case of `NCCCN=c1ccc2c3c1c(O)c1c(O)ccc(=O)c1c3[nH]n2CCNCCO`, the GI50 was 0.723 µM in the assay on 786-0 renal; 2.06 µM and 1.46 µM with HCT-116 colon; 1.84 µM and 0.409 µM in the assay on HOP-92 NSCLC; 0.117 µM and 0.12 µM with NCI-H460 lung; 4.18 µM in the assay on OVCAR-3 ovarian; 1.51 µM in the assay on SK-OV-3 ovarian. Further, the GI50 in the assay on SR leukemia was 0.291 µM; in the assay with TK-10 renal, 6.59 µM; in the assay on U251 CNS it was 0.606 µM and 0.485 µM. In addition, the TGI in the assay with 786-0 renal is 11.4 µM and 5.28 µM; in the assay on HCT-116 colon it was 9.67 µM and 20.2 µM; in the assay with HOP-92 NSCLC, 10.3 µM and 2.34 µM; in the assay with NCI-H460 lung, 3.66 µM and 15.7 µM; in the assay with OVCAR-3 ovarian it was 17.4 µM and 22.5 µM; in the assay with SK-OV-3 ovarian it was 16.2 µM and 55.7 µM. In addition, the TGI with T-47D breast is 15.8 µM; in the assay on TK-10 renal, 21.3 µM and 77.7 µM; in the assay on U251 CNS, 5.61 µM and 27.7 µM.

On to `COc1ccc(/C=C/C(=O)c2cc3c(N)c(C(=O)Nc4ccc(OC)cc4)sc3nc2C)cc1`, for which the GI50 is 0.353 µM with 786-0 renal; 0.0634 µM with HCT-116 colon; 0.757 µM with HOP-92 NSCLC; 0.155 µM in the assay with NCI-H460 lung; 0.0276 µM in the assay with OVCAR-3 ovarian; 0.215 µM with SK-OV-3 ovarian. Further, the GI50 was 0.889 µM in the assay with SR leukemia, 0.403 µM in the assay on T-47D breast, 2.85 µM in the assay on TK-10 renal and 1.65 µM with U251 CNS. In addition, the TGI with 786-0 renal is > 50 µM; in the assay with HCT-116 colon, 17.5 µM; with HOP-92 NSCLC it was > 50 µM; in the assay on NCI-H460 lung, 0.484 µM; with OVCAR-3 ovarian it was 1.96 µM; in the assay with SK-OV-3 ovarian, > 50 µM. Further, the TGI in the assay with SR leukemia is > 50 µM; in the assay on T-47D breast, > 50 µM; with TK-10 renal it was > 50 µM; with U251 CNS, > 30.9 µM.

As for `NC(=O)/C(=C/n1cnc(-c2cc(C(F)(F)F)cc(C(F)(F)F)c2)n1)c1cncnc1`, the GI50 with 786-0 renal was 0.412 µM; in the assay with HCT-116 colon, 0.162 µM; with HOP-92 NSCLC, 0.159 µM; in the assay on NCI-H460 lung, 0.187 µM; in the assay on OVCAR-3 ovarian, 0.154 µM; in the assay on SK-OV-3 ovarian it was 1.57 µM. For the same compound, the GI50 is 0.0563 µM in the assay with SR leukemia, 0.116 µM with T-47D breast, 0.986 µM in the assay with TK-10 renal and 0.301 µM in the assay on U251 CNS. Besides, the TGI with 786-0 renal turned out to be 11.4 µM; in the assay with HCT-116 colon it was 4.95 µM; in the assay on HOP-92 NSCLC it was 8.23 µM; with NCI-H460 lung, 5.61 µM; in the assay on OVCAR-3 ovarian, 3.32 µM; in the assay on SK-OV-3 ovarian, 43.1 µM. Besides, the TGI with SR leukemia was > 34.4 µM; in the assay on T-47D breast it was 11.8 µM; with TK-10 renal, 13.5 µM; in the assay on U251 CNS, 12.3 µM.

Regarding `O=c1cccc(Cl)[nH]1`, the TGI with 786-0 renal, in the assay with HCT-116 colon, with HOP-92 NSCLC, in the assay with NCI-H460 lung, in the assay with OVCAR-3 ovarian and in the assay on SK-OV-3 ovarian was > 100 µM throughout. Moreover, the TGI in the assay on SR leukemia, with T-47D breast, in the assay with TK-10 renal and in the assay with U251 CNS was > 100 µM in each case.

With `COc1ccc(-c2csc(Nc3cccc(-c4csc(C)n4)c3)n2)cc1`, the GI50 with 786-0 renal was 2.14 µM; in the assay on HCT-116 colon, 1.8 µM; in the assay on HOP-92 NSCLC, 24.7 µM; in the assay on NCI-H460 lung, 0.354 µM; in the assay on OVCAR-3 ovarian, 0.489 µM; in the assay with SK-OV-3 ovarian, 2.17 µM. The GI50 with SR leukemia is 0.0878 µM; in the assay with T-47D breast, 11.5 µM; in the assay with TK-10 renal, 5.04 µM; in the assay with U251 CNS, 0.783 µM. Also, the TGI in the assay on 786-0 renal was > 34.8 µM; with HCT-116 colon, > 50 µM; in the assay on HOP-92 NSCLC it was > 50 µM; with NCI-H460 lung it was > 19.3 µM; in the assay on OVCAR-3 ovarian it was > 10.8 µM; in the assay with SK-OV-3 ovarian, > 50 µM. For the same compound, the TGI was 0.27 µM in the assay on SR leukemia, > 50 µM with T-47D breast, > 50 µM in the assay on TK-10 renal and > 27.6 µM in the assay on U251 CNS.

Turning to `O=C1Nc2ccc3c(c2/C1=C\c1cc2c(cc1Br)OCO2)OCO3`, the GI50 is 1.24 µM in the assay on 786-0 renal; 0.376 µM in the assay on HCT-116 colon; 1.16 µM with HOP-92 NSCLC; 0.35 µM with NCI-H460 lung; 0.217 µM in the assay with OVCAR-3 ovarian; 0.512 µM with SK-OV-3 ovarian. The GI50 is 0.239 µM in the assay with SR leukemia, 0.969 µM with T-47D breast, 1.52 µM in the assay on TK-10 renal and 0.422 µM in the assay with U251 CNS. The TGI with 786-0 renal is 3.43 µM; with HCT-116 colon, 1.72 µM; in the assay on HOP-92 NSCLC, 4.37 µM; in the assay with NCI-H460 lung it was 1.35 µM; in the assay with OVCAR-3 ovarian it was 0.589 µM; with SK-OV-3 ovarian, 1.89 µM. Further, the TGI with SR leukemia was > 30.8 µM; in the assay on T-47D breast, 6.58 µM; with TK-10 renal, 3.84 µM; in the assay on U251 CNS it was 1.68 µM.

(Values after PubChem BioAssay (NCI).)
